Data taken from ChEMBL document CHEMBL1201862, “PubChem BioAssay data set” (2004).
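1) Cells in 96-well plates. 2) Compound, 48 h, 5 concentrations. 3) Linear interpolation between surrounding doses. 4) Unreached endpoint = highest concentration. GI50 = concentration required for 50% inhibition of growth.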 Calls of active or inactive are those of the source. Cut-off read from the data, not from the text of the source: active = GI50 up to about 1.1 µM and inactive = higher.

What was measured:
Test in all cases: NCI anticancer screen, dose series, 48 h
HCT-15 = tested on: HCT-15
HOP-92 = tested on: HOP-92
MDA-MB-231 = tested on: MDA-MB-231
A498 = tested on: A498
MOLT-4 = tested on: MOLT-4
SNB-75 = tested on: SNB-75
U-251 = tested on: U-251
LOX IMVI = tested on: LOX IMVI
786-0 = tested on: 786-0
MDA-MB-435 = tested on: MDA-MB-435
HOP-62 = tested on: HOP-62
KM12 = tested on: KM12
IGROV-1 = tested on: IGROV-1
HL-60 = tested on: HL-60
HCT-116 = tested on: HCT-116
TK-10 = tested on: TK-10
SF-539 = tested on: SF-539
SW-620 = tested on: SW-620
UACC-257 = tested on: UACC-257
SR = tested on: SR

SMILES	GI50 (HCT-15)	GI50 (HOP-92)	GI50 (MDA-MB-231)	GI50 (A498)	GI50 (MOLT-4)	GI50 (SNB-75)	GI50 (U-251)	GI50 (LOX IMVI)	GI50 (786-0)	GI50 (MDA-MB-435)	GI50 (HOP-62)	GI50 (KM12)	GI50 (IGROV-1)	GI50 (HL-60)	GI50 (HCT-116)	GI50 (TK-10)	GI50 (SF-539)	GI50 (SW-620)	GI50 (UACC-257)	GI50 (SR)
CCCn1c(=O)c(N2CCN(c3ccccc3)CC2)nc2sc3ccccc3c21	> 100 µM	> 100 µM (inactive)	> 100 µM (inactive)	> 100 µM (inactive)	> 100 µM (inactive)	> 100 µM (inactive)	> 100 µM (inactive)	> 100 µM (inactive)	> 100 µM (inactive)	> 100 µM (inactive)	> 100 µM (inactive)	> 100 µM (inactive)	> 100 µM (inactive)	49.7 µM (inactive)	> 100 µM (inactive)	> 100 µM (inactive)	> 100 µM (inactive)	> 100 µM (inactive)	> 100 µM (inactive)	–
COc1ccc(N[C@H]([C@@H](c2ccccc2)[S+]([O-])c2ccc(C)cc2)C(F)(F)F)cc1 (stereo partly drawn)	30 µM	34 µM (inactive)	32.9 µM (inactive)	–	34.9 µM (inactive)	24.8 µM (inactive)	17.9 µM (inactive)	53.1 µM (inactive)	39 µM (inactive)	41.1 µM (inactive)	–	33.4 µM (inactive)	48.8 µM (inactive)	19.1 µM (inactive)	29.4 µM (inactive)	74.1 µM (inactive)	22.5 µM (inactive)	61.1 µM (inactive)	> 100 µM (inactive)	> 100 µM (inactive)
O=[N+]([O-])c1cc(C(F)(F)F)ccc1S(=O)(=O)N[C@@H]1CCCC[C@H]1NS(=O)(=O)c1ccc(C(F)(F)F)cc1[N+](=O)[O-]	2.69 µM	1.98 µM (inactive)	2.77 µM (inactive)	5.43 µM (inactive)	–	1.83 µM (inactive)	3.37 µM (inactive)	1.56 µM (inactive)	3.47 µM (inactive)	2.15 µM (inactive)	7.1 µM (inactive)	3.08 µM (inactive)	2.31 µM (inactive)	1.39 µM (inactive)	3.43 µM (inactive)	11 µM (inactive)	1.81 µM (inactive)	3.78 µM (inactive)	8.07 µM (inactive)	–
Cc1ccc(/C=C/c2n[nH]c(N/N=C/c3ccc4c(c3)OCO4)nc2=O)cc1	44.9 µM	–	15.5 µM (inactive)	–	39.9 µM (inactive)	15 µM (inactive)	17.6 µM (inactive)	19.6 µM (inactive)	14.4 µM (inactive)	33.4 µM (inactive)	19 µM (inactive)	17.3 µM (inactive)	20.2 µM (inactive)	–	21.1 µM (inactive)	25.9 µM (inactive)	21 µM (inactive)	19.5 µM (inactive)	40.1 µM (inactive)	11.2 µM (inactive)
Cc1nn(-c2ccccc2)c(C)c1/C=N/N=C1\S/C(=C\c2ccc(Cl)cc2)C(=O)N1c1ccccc1	9.89 µM	91 µM (inactive)	34.7 µM (inactive)	> 100 µM (inactive)	14.2 µM (inactive)	11.6 µM (inactive)	10.9 µM (inactive)	> 100 µM (inactive)	3.13 µM (inactive)	32 µM (inactive)	20.1 µM (inactive)	7.67 µM (inactive)	5.83 µM (inactive)	11.8 µM (inactive)	9.48 µM (inactive)	14.2 µM (inactive)	> 100 µM (inactive)	9.2 µM (inactive)	> 100 µM (inactive)	–
CNC(=O)c1ccc(C(=O)NCCCCCN(O)C(=O)CCC(=O)NCCCCCN(O)C(=O)CCC(=O)NCCCCCN(O)C(C)=O)c(O)c1O	21.9 µM	37.4 µM (inactive)	53.7 µM (inactive)	> 100 µM (inactive)	–	> 100 µM (inactive)	33.9 µM (inactive)	18.3 µM (inactive)	69.3 µM (inactive)	> 100 µM (inactive)	21.4 µM (inactive)	58.5 µM (inactive)	60.4 µM (inactive)	23.8 µM (inactive)	32.9 µM (inactive)	78.9 µM (inactive)	29 µM (inactive)	39.3 µM (inactive)	68.5 µM (inactive)	–
O=C1C2=Cc3ccccc3OC2(O)Oc2cc(O)cc(O)c21 (stereo not drawn)	> 10 µM	> 100 µM (inactive)	> 100 µM (inactive)	> 100 µM (inactive)	> 100 µM (inactive)	> 100 µM (inactive)	> 100 µM (inactive)	> 100 µM (inactive)	> 100 µM (inactive)	> 100 µM (inactive)	> 100 µM (inactive)	> 100 µM (inactive)	> 100 µM (inactive)	–	> 100 µM (inactive)	> 100 µM (inactive)	> 100 µM (inactive)	> 100 µM (inactive)	> 100 µM (inactive)	–
COc1ccc(/N=N/c2c(C)c(C#N)c(=S)n(C3OC(CO)C(O)C(O)C3O)c2C)cc1 (stereo not drawn)	53.1 µM	16.9 µM (inactive)	62.8 µM (inactive)	–	21.8 µM (inactive)	83.6 µM (inactive)	51.5 µM (inactive)	56.4 µM (inactive)	44.2 µM (inactive)	38.8 µM (inactive)	42.3 µM (inactive)	73.1 µM (inactive)	54.1 µM (inactive)	38.3 µM (inactive)	31.6 µM (inactive)	82 µM (inactive)	48.3 µM (inactive)	44.1 µM (inactive)	71.9 µM (inactive)	23.4 µM (inactive)
COc1c2cc([N+](=O)[O-])cc1CN(C(=O)C(F)(F)F)CCOCCN(C(=O)C(F)(F)F)C2	> 100 µM	> 100 µM (inactive)	> 100 µM (inactive)	> 100 µM (inactive)	> 100 µM (inactive)	69.7 µM (inactive)	> 100 µM (inactive)	> 100 µM (inactive)	> 100 µM (inactive)	> 100 µM (inactive)	> 100 µM (inactive)	> 100 µM (inactive)	> 100 µM (inactive)	> 100 µM (inactive)	> 100 µM (inactive)	> 100 µM (inactive)	> 100 µM (inactive)	> 100 µM (inactive)	> 100 µM (inactive)	–
COc1ccccc1C1(c2c(OC)c(=O)c2=O)SCCCS1	61 µM	19.2 µM (inactive)	83.2 µM (inactive)	49 µM (inactive)	72.4 µM (inactive)	71.8 µM (inactive)	> 100 µM (inactive)	60.3 µM (inactive)	> 100 µM (inactive)	> 100 µM (inactive)	> 100 µM (inactive)	> 100 µM (inactive)	47.2 µM (inactive)	> 100 µM (inactive)	> 100 µM (inactive)	> 100 µM (inactive)	> 100 µM (inactive)	> 100 µM (inactive)	85.1 µM (inactive)	–
CC12OC(=O)[C@@]3(O)CCC4C(C[C@H]5O[C@]56CC=CC(=O)[C@]46C)C45OC[C@H]6C(=O)O[C@@H]1C[C@@]6(C)[C@H](C4=O)C23O5 (stereo partly drawn)	0.977 µM	2.11 µM (inactive)	0.885 µM (active)	–	0.673 µM (active)	6.79 µM (inactive)	1.99 µM (inactive)	1.63 µM (inactive)	0.659 µM (active)	1.42 µM (inactive)	2.57 µM (inactive)	1.85 µM (inactive)	1.24 µM (inactive)	0.121 µM (active)	1.33 µM (inactive)	1 µM (active)	0.252 µM (active)	0.671 µM (active)	1.32 µM (inactive)	0.392 µM (active)
